Experimental data from ChEMBL document CHEMBL3997763 (Medchemcomm, 2016).
Calls of active or inactive are those of the source. The calls are words filed in the database; no cut-off is given here.

Columns and labels:
[1] = tested on: Liver; test: Stability in Sprague-Dawley rat liver microsomes at 10 uM in absence of NADPH after 5 to 90 mins by LC-MS/MS analysis; assay type: ADME, microsome
[2] = species: Rattus norvegicus; test: animal or person; assay type: functional; details: Charles Foster, po, 18 h
Description: Antihyperlipidemic activity in triton WR-1339 induced Charles Foster rat hyperlipidemia model assessed as inhibition of triglyceride level in serum at 100 mg/kg, po administered simultaneously with triton WR-1339 after 18 hrs by enzymatic method relative to control

[3] = tested on: Rattus norvegicus; test: Hypolipidemic activity in HFD-induced Charles Foster rat chronic hyperlipidemia model assessed as increase in fecal excretion of cholic acid at 100 mg/kg administered via oral gavage for 30 days simultaneously with high fat diet by enzymatic method relative to HFD treated vehicle; assay type: functional
[4] = molecular target: T1, 3-hydroxy-3-methylglutaryl-coenzyme A reductase (Homo sapiens) (UniProt P04035); test: Inhibition of human HMG-CoA reductase catalytic domain at 50 uM using HMG-CoA as substrate in presence of NADPH by colorimetric method relative to control
T1 sequence (whole entry): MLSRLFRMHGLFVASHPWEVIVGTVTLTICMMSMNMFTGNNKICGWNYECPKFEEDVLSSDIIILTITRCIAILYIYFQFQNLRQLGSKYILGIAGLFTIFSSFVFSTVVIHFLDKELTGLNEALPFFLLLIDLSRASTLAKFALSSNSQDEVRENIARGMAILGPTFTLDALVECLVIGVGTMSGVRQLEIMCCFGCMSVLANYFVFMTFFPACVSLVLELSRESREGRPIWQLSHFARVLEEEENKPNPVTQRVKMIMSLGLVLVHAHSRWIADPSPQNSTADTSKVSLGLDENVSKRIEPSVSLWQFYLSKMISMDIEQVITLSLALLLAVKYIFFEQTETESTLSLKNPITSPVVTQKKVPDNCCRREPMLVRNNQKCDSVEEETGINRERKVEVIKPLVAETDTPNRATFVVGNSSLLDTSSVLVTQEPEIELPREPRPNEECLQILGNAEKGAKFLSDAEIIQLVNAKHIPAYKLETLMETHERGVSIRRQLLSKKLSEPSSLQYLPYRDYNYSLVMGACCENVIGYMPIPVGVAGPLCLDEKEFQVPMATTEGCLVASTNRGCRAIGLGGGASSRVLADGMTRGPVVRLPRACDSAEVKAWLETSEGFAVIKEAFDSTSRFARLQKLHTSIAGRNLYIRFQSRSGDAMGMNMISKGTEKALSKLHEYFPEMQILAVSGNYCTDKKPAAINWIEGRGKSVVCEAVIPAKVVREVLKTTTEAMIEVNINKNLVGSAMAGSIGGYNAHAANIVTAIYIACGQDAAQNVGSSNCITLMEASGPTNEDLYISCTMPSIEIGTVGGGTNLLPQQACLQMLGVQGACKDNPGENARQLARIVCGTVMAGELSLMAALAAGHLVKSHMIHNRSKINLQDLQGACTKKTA

[5] = tested on: Rattus norvegicus; test: Hypolipidemic activity in HFD-induced Charles Foster rat assessed as reduction in serum VLDL-TC at 100 mg/kg administered as single dose via oral gavage for 30 days simultaneously with high fat diet; assay type: functional, organism-based
[6] = tested on: Liver; test: Intrinsic clearance in Sprague-Dawley rat liver microsomes at 10 uM in absence of NADPH after 5 to 90 mins by LC-MS/MS analysis; assay type: ADME, microsome
[7] = tested on: Rattus norvegicus; test: Antihyperlipidemic activity in triton WR-1339 induced Charles Foster rat hyperlipidemia model assessed as increase in HDL-C level in serum at 100 mg/kg, po administered simultaneously with triton WR-1339 after 18 hrs by enzymatic method relative to control; assay type: functional
[8] = molecular target: Albumin (Bos taurus, UniProt P02769); test: Binding affinity to bovine serum albumin by absorption spectroscopic method; assay type: ADME; details: cattle, isolated protein
[9] = Cmax in Sprague-Dawley rat at 100 mg/kg, po administered as single dose by LC-MS/MS analysis; assay type: ADME, organism-based; design: dose 100 mg/kg, route oral; details: in vivo
[10] = Apparent oral volume of distribution in Sprague-Dawley rat at 100 mg/kg administered as single dose by LC-MS/MS analysis; assay type: ADME, organism-based; details: in vivo
[11] = tested on: Rattus norvegicus; test: Hypolipidemic activity in HFD-induced Charles Foster rat chronic hyperlipidemia model assessed as reduction in serum triglyceride level at 100 mg/kg administered via oral gavage for 30 days simultaneously with high fat diet by enzymatic method relative to HFD treated vehicle; assay type: functional; details: 720 h
[12] = tested on: Rattus norvegicus; test: Hypolipidemic activity in HFD-induced Charles Foster rat chronic hyperlipidemia model assessed as reduction in serum total cholesterol level at 100 mg/kg administered via oral gavage for 30 days simultaneously with high fat diet by enzymatic method relative to HFD treated vehicle; assay type: functional; details: 720 h
[13] = tested on: Rattus norvegicus; test: Hypolipidemic activity in HFD-induced Charles Foster rat assessed as increase in human I125-LDL binding to rat liver plasma membrane at 100 mg/kg administered as single dose via oral gavage for 30 days simultaneously with high fat diet by minigamma counting; assay type: functional, organism-based
[14] = Stability of the compound in simulated intestinal fluid at 10 uM up to 120 mins by LC-MS/MS analysis
[15] = molecular target: T1, 3-hydroxy-3-methylglutaryl-coenzyme A reductase (Homo sapiens); test: Inhibition of human HMG-CoA reductase catalytic domain at 5 uM using HMG-CoA as substrate in presence of NADPH by colorimetric method relative to control
[16] = tested on: Rattus norvegicus; test: Hypolipidemic activity in HFD-induced Charles Foster rat assessed as reduction in serum LDL-TG at 100 mg/kg administered as single dose via oral gavage for 30 days simultaneously with high fat diet; assay type: functional, organism-based
[17] = tested on: Rattus norvegicus; test: Antihyperlipidemic activity in triton WR-1339 induced Charles Foster rat hyperlipidemia model assessed as inhibition of triglyceride level in serum at 50 mg/kg, po administered simultaneously with triton WR-1339 after 18 hrs by enzymatic method relative to control; assay type: functional
[18] = tested on: Rattus norvegicus; test: Antihyperlipidemic activity in triton WR-1339 induced Charles Foster rat hyperlipidemia model assessed as inhibition of total cholesterol level in serum at 150 mg/kg, po administered simultaneously with triton WR-1339 after 18 hrs by enzymatic method relative to control; assay type: functional
[19] = tested on: Rattus norvegicus; test: Hypolipidemic activity in HFD-induced Charles Foster rat chronic hyperlipidemia model assessed as reduction in liver total cholesterol level at 100 mg/kg administered via oral gavage for 30 days simultaneously with high fat diet by enzymatic method relative to HFD treated vehicle; assay type: functional; details: 720 h
[20] = tested on: Rattus norvegicus; test: Hypolipidemic activity in HFD-induced Charles Foster rat assessed as increase in serum HDL-TC at 100 mg/kg administered as single dose via oral gavage for 30 days simultaneously with high fat diet; assay type: functional, organism-based
[21] = molecular target: T1, 3-hydroxy-3-methylglutaryl-coenzyme A reductase (Homo sapiens); test: Inhibition of human HMG-CoA reductase catalytic domain using HMG-CoA as substrate in presence of NADPH by colorimetric method
[22] = tested on: Rattus norvegicus; test: Antihyperlipidemic activity in triton WR-1339 induced Charles Foster rat hyperlipidemia model assessed as inhibition of triglyceride level in serum at 150 mg/kg, po administered simultaneously with triton WR-1339 after 18 hrs by enzymatic method relative to control; assay type: functional
[23] = tested on: Rattus norvegicus; test: Antihyperlipidemic activity in triton WR-1339 induced Charles Foster rat hyperlipidemia model assessed as inhibition of phospholipid level in serum at 150 mg/kg, po administered simultaneously with triton WR-1339 after 18 hrs by enzymatic method relative to control; assay type: functional
[24] = molecular target: T1, 3-hydroxy-3-methylglutaryl-coenzyme A reductase (Homo sapiens); test: Inhibition of human HMG-CoA reductase catalytic domain at 1 uM using HMG-CoA as substrate in presence of NADPH by colorimetric method relative to control

Albumin, sequence (P02769 whole entry): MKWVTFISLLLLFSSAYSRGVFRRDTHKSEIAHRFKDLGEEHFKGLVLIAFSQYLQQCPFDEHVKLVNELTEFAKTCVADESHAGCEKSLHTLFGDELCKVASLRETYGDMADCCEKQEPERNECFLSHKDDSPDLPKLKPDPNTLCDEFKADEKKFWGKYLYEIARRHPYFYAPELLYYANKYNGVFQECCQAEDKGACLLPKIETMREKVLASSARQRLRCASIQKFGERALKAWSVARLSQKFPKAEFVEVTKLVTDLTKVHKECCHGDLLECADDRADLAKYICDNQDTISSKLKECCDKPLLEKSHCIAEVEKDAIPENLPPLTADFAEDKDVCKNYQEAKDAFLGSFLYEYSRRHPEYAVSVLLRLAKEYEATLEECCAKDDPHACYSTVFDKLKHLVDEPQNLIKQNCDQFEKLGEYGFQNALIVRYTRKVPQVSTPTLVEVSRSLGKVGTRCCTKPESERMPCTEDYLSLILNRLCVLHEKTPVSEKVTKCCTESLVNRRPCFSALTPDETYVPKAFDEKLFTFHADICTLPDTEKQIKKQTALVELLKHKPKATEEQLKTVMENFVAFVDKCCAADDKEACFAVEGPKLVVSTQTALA

- Stability [1]: Stable
- inhibition [4]: 74%
- CLH [6]: 5.8 µL/min/mg
- Activity [8]: Active
- Cmax [9]: 79 ng/mL
- Vd/F [10]: 684 L/kg
- inhibition [15]: 32%
- inhibition [21]: Dose-dependent effect
- inhibition [24]: 19%
Structure (SMILES): COc1ccc(-c2cc3cc(C(c4c[nH]c5ccccc45)c4c[nH]c5ccccc45)cc(C(C)(C)C)c3oc2=O)cc1OC
- inhibition in vivo at 100 mg/kg [2]: 33%
- Activity [3]: 31%
- Activity [5]: Active
- Activity [7]: 23%
- inhibition in vivo at 100 mg/kg [11]: 26%
- inhibition in vivo at 100 mg/kg [12]: 24%
- Activity [13]: Active
- Stability [14]: Stable
- Activity [16]: Active
- inhibition in vivo at 50 mg/kg [17]: 20%
- inhibition in vivo at 150 mg/kg [18]: 33%
- inhibition in vivo at 100 mg/kg [19]: 27%
- Activity [20]: Active
- inhibition in vivo at 150 mg/kg [22]: 33%
- inhibition in vivo at 150 mg/kg [23]: 35%
